Where “and” joins values, the source holds several entries; their conditions need not be identical. Equal entries are not always repeated. Entries after “also recorded” stand apart in the source; their conditions may differ.
Key:
[1] = system: A. palmeri population from Arkansas (CCR); design: method as in ref 16 = [16]; 16 Priess GL , Norsworthy JK , Godara N , Mauromoustakos A , Butts TR , Roberts TL et al ., Confirmation of glufosinate‐resistant palmer amaranth and response to other herbicides . Weed Technol 36 : 3; conditions: CCR population compared with susceptible standards; listed as GFA; cited from earlier work
[2] = system: Amaranthus palmeri cytosolic GS1.1 G160T; assay: GS enzyme inhibition assay, GS1.1 G160T; format: biochemical
Method: (§1) GS activity was determined spectrophotometrically following the Sigma‐Aldrich enzymatic assay protocol. The reaction couples the ATP‐dependent conversion of L‐glutamate and ammonium to L‐glutamine with pyruvate kinase (PK) and L‐lactate dehydrogenase (LDH), such that oxidation of β‐NADH to β‐NAD^+ can be monitored at 340 nm. Recombinant GS from A. palmeri was expressed in E. coli, purified by affinity chromatography, and quantified by the Bradford method using bovine serum albumin as standard. […] Reaction mixtures were equilibrated to 37°C and initiated by the addition of enzyme, and the decrease in absorbance at 340 nm was recorded for 5–10 min; only the linear portion of the curve was used for activity calculations. […] Activity was calculated using an extinction coefficient for NADH of 6.22 mM^−1 cm^−1 and expressed as units per mg protein, where one unit corresponds to the formation of 1 μmol of L‐glutamine in […] at pH 7.1 and 37 °C. […] Percent inhibition was calculated relative to untreated (positive) and no‐enzyme (negative) controls. […] Resistance factors were calculated by dividing the IC₅₀ of each mutant variant by that of wild‐type GS.

[3] = system: Amaranthus palmeri cytosolic GS1.1 E297A; assay: GS enzyme inhibition assay, GS1.1 E297A; format: biochemical
Method: as §1

[4] = system: Amaranthus palmeri cytosolic GS1.1 A309L; assay: GS enzyme inhibition assay, GS1.1 A309L; format: biochemical
Method: as §1

[5] = system: Amaranthus palmeri cytosolic GS1.1 R38E; assay: GS enzyme inhibition assay, GS1.1 R38E; format: biochemical
Method: as §1

[6] = system: Amaranthus palmeri cytosolic GS1.1 D56S; assay: GS enzyme inhibition assay, GS1.1 D56S; format: biochemical
Method: as §1

[7] = system: Amaranthus palmeri cytosolic GS1.1 E131D; assay: GS enzyme inhibition assay, GS1.1 E131D; format: biochemical
Method: as §1

[8] = system: Amaranthus palmeri cytosolic GS1.1 E192D; assay: GS enzyme inhibition assay, GS1.1 E192D; format: biochemical
Method: as §1

[9] = system: Amaranthus palmeri cytosolic GS1.1 K165V; assay: GS enzyme inhibition assay, GS1.1 K165V; format: biochemical
Method: as §1

[10] = system: GFA‐resistant E. indica population; design: method as in ref 10 = [10]; 10 Jalaludin A , Ngim J , Bakar BH and Alias Z , Preliminary findings of potentially resistant goosegrass ( Eleusine indica ) to glufosinate ammonium in Malaysia . Weed Biol Manage 10 : 256 – 260 ( 20); conditions: cited from earlier work
[11] = system: Amaranthus palmeri cytosolic GS1.1 R316E; assay: GS enzyme inhibition assay, GS1.1 R316E; format: biochemical
Method: as §1

[12] = target: Amaranthus palmeri GS2.2 wild‐type (WT); assay: GS enzyme inhibition assay, GS2.2 wild-type; format: biochemical; conditions: GS2.2 WT
Method: as §1

[13] = system: Arabidopsis thaliana plants expressing Arabidopsis GS2.2 G254D; assay: Postemergence GFA spray on transgenic Arabidopsis expressing GS2.2 G254D; format: in vivo; conditions: transgenic Arabidopsis expressing Arabidopsis GS2.2 G254D; 100, 500 and 1000 g ha^−1 postemergence; listed as GFA
Text: Mutant GS variants G2.2 G255D from A. palmeri and G254D from Arabidopsis were cloned into the RTP6557 transformation vector, which was subsequently introduced into Agrobacterium tumefaciens strain C58C1pMP90. The construct also carried an acetolactate synthase (ALS) herbicide‐resistance gene as a selectable marker, ensuring that Arabidopsis seedlings tested for resistance to GFA herbicide expressed the transgene.
Arabidopsis plants carrying immature floral buds were transformed by the floral‐dip method, immersing inflorescences for 10 s in the bacterial suspension supplemented with Silwet‐L77 at 0.05% v/v. After dipping, plants were maintained overnight under high humidity and low light, then transferred to long‐day conditions until maturity. Once siliques had yellowed, seeds were harvested into paper bags. T₁ seeds were collected, placed into Falcon tubes, and stored at 4 °C.
After ≥14 d of cold storage, T₁ seeds were sown and stratified as previously described. Transgenic plants were confirmed by PCR detection of the AHAS resistance marker gene. […]
Herbicide treatments were applied at the 10‐leaf stage using a spray chamber calibrated to deliver 375 L ha^−1 of spray solution. […] Herbicide efficacy was visually evaluated 7 d after application.

[14] = system: Amaranthus palmeri cytosolic GS1.1 E192Q; assay: GS enzyme inhibition assay, GS1.1 E192Q; format: biochemical
Method: as §1

[15] = system: Amaranthus palmeri cytosolic GS1.1 E297S; assay: GS enzyme inhibition assay, GS1.1 E297S; format: biochemical; conditions: IC50 variant / IC50 WT
Method: as §1

[16] = read-out: Glufosinate‐ammonium IC50

## CP(=O)(O)CCC(N)C(=O)O (stereo not shown) [Glufosinate‐ammonium]
[1]
  resistance indices: 5.1 and 5.9
[2]; IC50 variant / IC50 WT
  Resistance index (RI): 18.7
[2]; [16]
  IC50: 405 µM
[3]; IC50 variant / IC50 WT
  Resistance index (RI): 0.3
[3]; [16]
  IC50: 6.9 µM
[4]; IC50 variant / IC50 WT
  Resistance index (RI): 9.4
[4]; [16]
  IC50: 204 µM
[5]; IC50 variant / IC50 WT
  Resistance index (RI): 0.2
[5]; [16]
  IC50: 4.8 µM
[6]; IC50 variant / IC50 WT
  Resistance index (RI): 2.6
[6]; [16]
  IC50: 56 µM
[7]; 10 000 μM
  Glufosinate‐ammonium % Inhibition at saturation 10 000 μM: 48%
[7]; [16]
  IC50: > 10000 µM
[8]; 10 000 μM
  Glufosinate‐ammonium % Inhibition at saturation 10 000 μM: 0%
[8]; [16]
  IC50: > 10000 µM
[9]; IC50 variant / IC50 WT
  Resistance index (RI): 1.5
[9]; [16]
  IC50: 33 µM
[10]
  resistance: up to 20 fold
[11]; IC50 variant / IC50 WT
  Resistance index (RI): 9.1
[11]; [16]
  IC50: 197 µM
[12]
  IC50: 110 µM
[13]
  tolerance to GFA (visual injury): failed to confer tolerance; also recorded: sensitive phenotype
[14]; 10 000 μM
  Glufosinate‐ammonium % Inhibition at saturation 10 000 μM: 0%
[14]; [16]
  IC50: > 10000 µM
[15]
  Resistance index (RI): 0.0

From PMC13352219, “Analysis of glutamine synthetase target‐site mutations and their role in endowing glufosinate‐ammonium resistance” (Pest Management Science, 2026)
